Some test systems named below: DU-145; EKVX; HCC 2998; HL-60; HOP-92; IGROV-1; LOX IMVI; MDA-MB-435; MOLT-4; NCI-H23; OVCAR-4; OVCAR-8; PC-3; RPMI-8226; SF-295; SK-OV-3; TK-10; UACC-62; UO-31; SK-MEL-2.
Test in all cases: DTP human tumour cell line panel, 48 h

This note sets out measurements from ChEMBL document CHEMBL1201862, “PubChem BioAssay data set” (2004).

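Assay format: 96-well plates, 48-hour exposure. GI50: concentration for 50% inhibition of growth.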 Calls of active or inactive are those of the source. Cut-off read from the data, not from the text of the source: active = GI50 up to about 1.1 µM and inactive = higher.

Consider `Cc1cc(C)c2c(O)cc(-c3cccc(Cl)c3)nc2n1`, for which the GI50 (as a rule, the concentration giving 50% growth inhibition) with DU-145 is 0.5 µM (active); in the assay on EKVX it was > 25 µM (inactive); in the assay with HCC 2998, 0.403 µM (active); in the assay on HL-60, 0.0316 µM (active); in the assay on HOP-92 it was 21.9 µM (inactive); with IGROV-1, 0.2 µM (active). Also, the GI50 is 0.273 µM (active) with LOX IMVI; 0.0115 µM (active) in the assay with MDA-MB-435; 0.161 µM (active) in the assay on MOLT-4; 0.76 µM (active) in the assay with NCI-H23; 77.3 µM (inactive) with OVCAR-4; 0.4 µM (active) in the assay on OVCAR-8. Also, the GI50 is 0.0282 µM (active) in the assay on PC-3; 0.148 µM (active) with RPMI-8226; 0.0492 µM (active) in the assay with SF-295; 0.293 µM (active) in the assay on SK-OV-3; > 41.1 µM (inactive) in the assay with TK-10; 0.0681 µM (active) with UACC-62. In addition, the GI50 in the assay on UO-31 is 3.34 µM (inactive).

On to `COc1ccc2c(O)c(S(=O)(=O)c3ccc(C)cc3)c(=O)oc2c1OC`, for which the GI50 in the assay on DU-145, in the assay on EKVX, with HCC 2998, with HL-60, in the assay on HOP-92 and with IGROV-1 was > 100 µM (inactive) throughout. For the same compound, the GI50 with MDA-MB-435, in the assay on MOLT-4, with NCI-H23, with OVCAR-4, in the assay on OVCAR-8 and in the assay with PC-3 was > 100 µM (inactive) in each case. The GI50 in the assay with RPMI-8226, in the assay with SF-295, with SK-MEL-2, with SK-OV-3, in the assay with TK-10 and in the assay on UACC-62 was > 100 µM (inactive) in each case. Besides, the GI50 in the assay with UO-31 was > 100 µM (inactive).

For `O=C(CSC1=NC(=O)C2(NN1)c1ccccc1-c1ccccc12)NC(=S)Nc1ccccc1`, the GI50 in the assay on DU-145 is > 10 µM (inactive); with EKVX it was 4.04 µM (inactive); with HCC 2998 it was > 10 µM (inactive); with HL-60 it was > 10 µM (inactive); in the assay with HOP-92 it was > 10 µM (inactive); in the assay with IGROV-1 it was > 10 µM (inactive). Besides, the GI50 in the assay with LOX IMVI is > 10 µM (inactive); with MDA-MB-435 it was > 10 µM (inactive); in the assay on MOLT-4, 9.14 µM (inactive); with NCI-H23 it was > 10 µM (inactive); in the assay with OVCAR-4, > 10 µM (inactive); in the assay on OVCAR-8 it was > 10 µM (inactive). Further, the GI50 is > 10 µM (inactive) in the assay with PC-3; 9.04 µM (inactive) in the assay on RPMI-8226; > 10 µM (inactive) in the assay on SF-295; > 10 µM (inactive) in the assay with SK-OV-3; > 10 µM (inactive) in the assay with TK-10; > 10 µM (inactive) in the assay on UACC-62. Besides, the GI50 in the assay with UO-31 is 4.7 µM (inactive).

As to `COc1cccc(OCC(=N/NC(=O)c2ccncc2)/N=C/c2cccnc2)c1`, the GI50 in the assay on DU-145 was > 100 µM (inactive); in the assay on EKVX it was > 100 µM (inactive); with HCC 2998, > 100 µM (inactive); in the assay with HL-60, > 100 µM (inactive); with HOP-92, 21 µM (inactive); with IGROV-1, > 100 µM (inactive). The GI50 was > 100 µM (inactive) in the assay with LOX IMVI; > 100 µM (inactive) in the assay on MDA-MB-435; 49.7 µM (inactive) with MOLT-4; > 100 µM (inactive) with NCI-H23; > 100 µM (inactive) in the assay with OVCAR-4; 86.3 µM (inactive) in the assay with OVCAR-8. The GI50 is > 100 µM (inactive) with PC-3; 68.2 µM (inactive) in the assay with RPMI-8226; > 100 µM (inactive) in the assay with SF-295; > 100 µM (inactive) in the assay with SK-MEL-2; > 100 µM (inactive) with SK-OV-3; > 100 µM (inactive) with TK-10. The GI50 in the assay on UACC-62 is > 100 µM (inactive).

Consider `O=S(=O)(O)c1cc(/N=N/c2cc(S(=O)(=O)O)c3ccccc3c2O)ccc1/C=C/c1ccc(/N=N/c2cc(S(=O)(=O)O)c3ccccc3c2O)cc1S(=O)(=O)O`, for which the GI50 with DU-145 was 303 µM (inactive); with EKVX, > 399 µM (inactive); in the assay on HCC 2998 it was > 100 µM (inactive); in the assay on HL-60 it was 18.2 µM (inactive); in the assay on HOP-92, > 80.9 µM (inactive); in the assay on IGROV-1, > 399 µM (inactive). Further, the GI50 was > 305 µM (inactive) with LOX IMVI; 111 µM (inactive) with MDA-MB-435; 22.8 µM (inactive) in the assay on MOLT-4; > 537 µM (inactive) with NCI-H23; > 86.5 µM (inactive) with OVCAR-4; > 755 µM (inactive) in the assay on OVCAR-8. The GI50 with PC-3 is 150 µM (inactive); in the assay on SF-295 it was > 462 µM (inactive); with SK-MEL-2, > 371 µM (inactive); in the assay on SK-OV-3 it was > 630 µM (inactive); with TK-10, 24.9 µM (inactive); with UACC-62, > 312 µM (inactive). Besides, in the assay on UO-31, the GI50 is > 367 µM (inactive).

For `CCCCCCCC/C=C\CCCCCCC(F)C(=O)O` (stereo not drawn), the GI50 in the assay on DU-145 was > 12.5 µM (inactive); with EKVX, 2.25 µM (inactive); in the assay on HCC 2998 it was > 12.5 µM (inactive); in the assay on HL-60 it was > 12.5 µM (inactive); in the assay with HOP-92 it was > 12.5 µM (inactive); in the assay with IGROV-1, > 12.5 µM (inactive). The GI50 in the assay with LOX IMVI, in the assay on MDA-MB-435, in the assay on MOLT-4, in the assay on NCI-H23, with OVCAR-4 and with OVCAR-8 was > 12.5 µM (inactive) in each case. Moreover, the GI50 in the assay with PC-3 is > 12.5 µM (inactive); with RPMI-8226, 11.2 µM (inactive); in the assay on SF-295 it was > 12.5 µM (inactive); in the assay with SK-MEL-2 it was > 12.5 µM (inactive); in the assay with SK-OV-3, > 12.5 µM (inactive); in the assay with TK-10, > 12.5 µM (inactive). Also, the GI50 with UO-31 is > 12.5 µM (inactive).

Consider `OC(c1cc2ccc(C(F)(F)F)cc2c2cc(C(F)(F)F)ccc12)C1CCCCN1` (stereo not drawn), for which the GI50 is 1.8 µM (inactive) in the assay on DU-145; 0.428 µM (active) in the assay on EKVX; 1.3 µM (inactive) in the assay with HCC 2998; 31.4 µM (inactive) in the assay with HL-60; 1.74 µM (inactive) in the assay with HOP-92; 1.74 µM (inactive) in the assay with IGROV-1. Besides, the GI50 is 1.26 µM (inactive) in the assay on LOX IMVI; 1.48 µM (inactive) in the assay with MDA-MB-435; 1.41 µM (inactive) in the assay on MOLT-4; 1.66 µM (inactive) in the assay on NCI-H23; 1.77 µM (inactive) in the assay with OVCAR-4; 1.58 µM (inactive) with PC-3. The GI50 was 2.17 µM (inactive) in the assay on RPMI-8226; 1.91 µM (inactive) with SK-MEL-2; 2.36 µM (inactive) in the assay on SK-OV-3; 1.73 µM (inactive) with TK-10; 2.06 µM (inactive) in the assay on UACC-62; 1.41 µM (inactive) in the assay on UO-31.

In the case of `Clc1cc(Cl)c2cc3cccc[n+]3cc2c1Cl`, the GI50 was 15.2 µM (inactive) in the assay on DU-145; 13.8 µM (inactive) in the assay with EKVX; 17.1 µM (inactive) in the assay with HCC 2998; 12.7 µM (inactive) in the assay with HL-60; 5.87 µM (inactive) in the assay with HOP-92; 15.7 µM (inactive) in the assay on LOX IMVI. The GI50 in the assay with MDA-MB-435 was 16.3 µM (inactive); in the assay on MOLT-4, 14 µM (inactive); in the assay on NCI-H23, 16.1 µM (inactive); in the assay on OVCAR-4, 15.5 µM (inactive); in the assay with OVCAR-8, 15.1 µM (inactive); in the assay on PC-3, 14 µM (inactive). For the same compound, the GI50 in the assay on RPMI-8226 is 16.4 µM (inactive); in the assay on SF-295, 18 µM (inactive); with SK-MEL-2, 16.3 µM (inactive); with SK-OV-3 it was 16.6 µM (inactive); in the assay with TK-10 it was 18.7 µM (inactive); in the assay with UACC-62, 15.3 µM (inactive). Besides, the GI50 in the assay on UO-31 was 15.1 µM (inactive).

`C[C@]12C(=O)OC[C@H](c3ccccc3)N1C(=O)N(Cc1ccccc1)[C@@H]2CO`: the GI50 with DU-145, in the assay with EKVX, with HCC 2998, in the assay with HL-60, in the assay on HOP-92 and in the assay on IGROV-1 was > 100 µM (inactive) in each case. Further, the GI50 with LOX IMVI, in the assay with MDA-MB-435, in the assay with MOLT-4, in the assay on OVCAR-4, in the assay with OVCAR-8 and with PC-3 was > 100 µM (inactive) throughout. In addition, the GI50 with SF-295, in the assay with SK-MEL-2, in the assay on SK-OV-3, in the assay with TK-10, in the assay on UACC-62 and in the assay on UO-31 was > 100 µM (inactive) throughout.

`COc1c(N2CCCCC2)c2c(=O)c3ccccc3oc2c2c3ccccc3n(C)c12`: the GI50 was > 100 µM (inactive) in the assay with DU-145; > 100 µM (inactive) with EKVX; > 100 µM (inactive) in the assay on HCC 2998; 57.3 µM (inactive) with HL-60; > 100 µM (inactive) with HOP-92; > 100 µM (inactive) in the assay with LOX IMVI. Further, the GI50 with MDA-MB-435 was > 100 µM (inactive); in the assay on MOLT-4, 54.8 µM (inactive); in the assay with NCI-H23, > 100 µM (inactive); with OVCAR-4, > 100 µM (inactive); in the assay on OVCAR-8, > 100 µM (inactive); with PC-3, > 100 µM (inactive). Besides, the GI50 in the assay with RPMI-8226 was 47.1 µM (inactive); in the assay with SF-295, > 100 µM (inactive); with SK-MEL-2, > 100 µM (inactive); with SK-OV-3 it was > 100 µM (inactive); in the assay with TK-10, > 100 µM (inactive); in the assay with UACC-62 it was > 100 µM (inactive). For the same compound, in the assay on UO-31, the GI50 was > 100 µM (inactive).
